Where a name gives a salt, the structure may show the parent alone.

In the first test the target is AaDOP2 (Aedes aegypti, UniProt H6D5H2). The test can be described thus: AaDOP2 antagonist screen of the LOPAC1280 library (HEK-CRELuc-Aadop2 cells, luminescence). It is filed as cell-based.
AaDOP2, sequence (H6D5H2 1-476): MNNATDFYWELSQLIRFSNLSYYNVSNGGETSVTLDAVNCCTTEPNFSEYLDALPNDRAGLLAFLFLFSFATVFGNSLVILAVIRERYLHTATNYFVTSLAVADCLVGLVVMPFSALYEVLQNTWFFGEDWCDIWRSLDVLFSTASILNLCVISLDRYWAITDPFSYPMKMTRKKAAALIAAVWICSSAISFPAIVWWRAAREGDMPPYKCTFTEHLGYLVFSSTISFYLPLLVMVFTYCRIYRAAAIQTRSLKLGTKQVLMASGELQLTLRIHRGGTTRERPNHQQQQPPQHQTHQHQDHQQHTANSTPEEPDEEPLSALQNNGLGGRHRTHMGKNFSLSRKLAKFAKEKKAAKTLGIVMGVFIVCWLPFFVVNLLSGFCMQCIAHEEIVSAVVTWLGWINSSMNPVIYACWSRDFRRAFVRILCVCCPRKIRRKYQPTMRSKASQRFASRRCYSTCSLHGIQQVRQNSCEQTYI
Settings: not given
Regarding `O=C(O)Cc1ccc(O)c(O)c1` [Compound 426, 3,4-Dihydroxyphenylacetic acid], the “Compound effect (percent receptor signaling in presence of test compound, relative lux units relative to the SCH23390 control)” value is reported as 120.
The same measure, in the same setting: in the case of `O=C1CN(/N=C/c2ccc(-c3ccc([N+](=O)[O-])cc3)o2)C(O)=N1` [Compound 427, Dantrolene sodium] it was 100.
`CCn1c(=O)[nH]c2cc(Cl)c(Cl)cc21` [Compound 428, DCEBIO]: the “Compound effect (percent receptor signaling in presence of test compound, relative lux units relative to the SCH23390 control)” value was found to be 67.
Same read-out and setting: then `OC[C@H]1NC[C@H](O)[C@@H](O)[C@@H]1O` [Compound 429, 1-Deoxynojirimycin hydrochloride], with 116; and `N[C@@H](Cc1ccc(O)c(O)c1)C(=O)O` [Compound 430, L-3,4-Dihydroxyphenylalanine], with 91; and `COc1cc2nc(N3CCN(C(=O)C4COc5ccccc5O4)CC3)nc(N)c2cc1OC` (stereo not shown) [Compound 432, Doxazosin mesylate], with 86.
The same measure, in the same setting: in the case of `C[C@H]1c2cccc(O)c2C(=O)C2=C(O)[C@]3(O)C(=O)C(C(N)=O)=C(O)[C@@H](N(C)C)[C@@H]3[C@@H](O)[C@@H]21` [Compound 433, Doxycycline hydrochloride] it was 103; in that of `Br.NC1CCc2cc(O)c(O)cc2C1` (stereo not shown) [Compound 434, 6,7-ADTN hydrobromide], 118.
Still for that read-out and setting: in the case of `CCCN(CCC)CCc1ccc(O)c(O)c1` [Compound 439, Dipropyldopamine hydrobromide] it was 106; in that of `Br.C=CCN1CCc2cccc3c2[C@H]1Cc1ccc(O)c(O)c1-3` [Compound 441, R(-)-N-Allylnorapomorphine hydrobromide], 87; in that of `CCn1cc(C(=O)O)c(=O)c2ccc(Cc3ccccc3)nc21` [Compound 442, Amfonelic acid], 96.
Regarding `O=C1NC(c2cccc([N+](=O)[O-])c2)=CCN1c1ccccc1O` [Compound 443, Icilin], the “Compound effect (percent receptor signaling in presence of test compound, relative lux units relative to the SCH23390 control)” value turned out to be 87.
Still for that read-out and setting: in the case of `CCCn1c(=O)c2c(ncn2C)n(CCC)c1=O` [Compound 450, 1,3-Dipropyl-7-methylxanthine] it was 123.
Still for that read-out and setting: then `CC(C)c1cccc(C(C)C)c1O` [Compound 452, Propofol], with 94.
Still for that read-out and setting: then `CN1CC[C@@]23CCCC[C@@H]2[C@@H]1Cc1ccc(O)cc13.O=C(O)C(O)C(O)C(=O)O` [Compound 453, Dextrorphan D-tartrate], with 107; and `COc1cc(OC)cc(C(CNc2ncnc3c2ncn3[C@@H]2O[C@H](CO)[C@@H](O)[C@H]2O)c2ccccc2C)c1` (stereo partly shown) [Compound 455, DPMA], with 110.
Turning to `O=[N+]([O-])c1cc(O)c(O)c([N+](=O)[O-])c1` [Compound 456, 3,5-Dinitrocatechol], the “Compound effect (percent receptor signaling in presence of test compound, relative lux units relative to the SCH23390 control)” value is 95.
Same read-out and setting: then `CCCN(CCC)CCc1c[nH]c2ccc(C(N)=O)cc12.O=C(O)/C=C\C(=O)O` [Compound 457, N,N-Dipropyl-5-carboxamidotryptamine maleate], with 106.
The same measure, in the same setting: then `O=C1N=c2cc(Cl)c(Cl)cc2=NC1=O` [Compound 458, 6,7-Dichloroquinoxaline-2,3-dione], with 129; and `C#CCn1c(=O)c2c(ncn2C)n(C)c1=O` [Compound 459, 3,7-Dimethyl-I-propargylxanthine], with 101.
Still for that read-out and setting: in the case of `Cl.O=C(OC1CCN(CCCl)CC1)C(c1ccccc1)c1ccccc1` [Compound 461, 4-Diphenylacetoxy-N-(2-chloroethyl)piperidine hydrochloride] it was 99; in that of `NCCCCCCCCCCN` [Compound 462, 1,10-Diaminodecane], 99; in that of `Br.CO[C@H]1CC=C2CCN3CCC4=C(CC(=O)OC4)[C@]23C1` [Compound 463, Dihydro-beta-erythroidine hydrobromide], 103.
As for `COc1cc(C[C@@H](C)N)c(OC)cc1I.Cl` [Compound 464, ( R)-(-)-DOI hydrochloride], the “Compound effect (percent receptor signaling in presence of test compound, relative lux units relative to the SCH23390 control)” value was found to be 69.
On the same count and under the same terms, then `CC(C)[C@@]1(NC(=O)[C@@H]2C[C@@H]3c4cccc5[nH]cc(c45)C[C@H]3N(C)C2)O[C@@]2(O)[C@@H]3CCCN3C(=O)[C@H](Cc3ccccc3)N2C1=O.CS(=O)(=O)O` [Compound 465, Dihydroergocristine methanesulfonate], with 32.
In the case of `Nc1cc(=O)[nH]c(N)n1` [Compound 466, 2,6-Diamino-4-pyrimidinone], the “Compound effect (percent receptor signaling in presence of test compound, relative lux units relative to the SCH23390 control)” value was 114.
Same read-out and setting: then `CN1C2CCC1CC(OC(c1ccc(F)cc1)c1ccc(F)cc1)C2.Cl` (stereo not drawn) [Compound 468, 4',4''-Difluor-3alpha-(diphenylmethoxy)tropane hydrochloride], with 123; and `CC(C)C[C@H](NC(=O)[C@H](O)[C@H](N)Cc1ccccc1)C(=O)O` [Compound 471, Epibestatin hydrochloride], with 107; and `CCc1cccc2c3c([nH]c12)C(CC)(CC(=O)O)OCC3` (stereo not shown) [Compound 472, Etodolac], with 98.
With `CSc1ccc(C(=O)c2[nH]c(=O)[nH]c2C)cc1` [Compound 473, Enoximone], the “Compound effect (percent receptor signaling in presence of test compound, relative lux units relative to the SCH23390 control)” value is listed as 103.
Same read-out and setting: then `COc1cc([C@@H]2c3cc4c(cc3[C@@H](O[C@@H]3O[C@@H]5CO[C@@H](C)O[C@H]5[C@H](O)[C@H]3O)[C@H]3COC(=O)[C@H]23)OCO4)cc(OC)c1O` [Compound 474, Etoposide], with 90.
With `CCOC(=O)c1cnc2c(cnn2CC)c1NN=C(C)C` [Compound 476, Etazolate hydrochloride], the “Compound effect (percent receptor signaling in presence of test compound, relative lux units relative to the SCH23390 control)” value came out at 136.
On the same count and under the same terms, then `CC[C@H]1CN2CCc3cc(OC)c(OC)cc3[C@@H]2C[C@@H]1C[C@H]1NCCc2cc(OC)c(OC)cc21` [Compound 478, Emetine dihydrochloride hydrate], with 14.
`CC(C)C[C@H](NC(=O)[C@H]1O[C@@H]1C(=O)O)C(=O)NCCCCN=C(N)N` [Compound 480, E-64]: the “Compound effect (percent receptor signaling in presence of test compound, relative lux units relative to the SCH23390 control)” value is recorded as 112.
Still for that read-out and setting: then `CN[C@@H](C)[C@H](O)c1ccccc1.CN[C@@H](C)[C@H](O)c1ccccc1.O=S(=O)(O)O` [Compound 483, (-)-Ephedrine hemisulfate], with 60.

The same test, now with this note: 10 µM compound, 300 nM dopamine, 2 hr; hit = compound effect <20.
Regarding `Br.CN1CCc2cc(O)cc3c2[C@H]1Cc1ccc(O)c(O)c1-3` [Compound 437, R(-)-2,10,11-Trihydroxyaporphine hybrobromide], the “Compound effect (percent receptor signaling in presence of test compound, relative lux units relative to the SCH23390 control)” value was 71%.
On the same count and under the same terms, then `Cl.Cl.Fc1ccc(C(OCCN2CCN(CCCc3ccccc3)CC2)c2ccc(F)cc2)cc1` [Compound 445, GBR-12909 dihydrochloride], with 59%; and `C[N+]1(C)CCC(OC(=O)C(c2ccccc2)c2ccccc2)CC1.[I-]` [Compound 449, 4-DAMP methiodide], with 97%; and `CCCCC1(C2CCCC2)Cc2cc(OCC(=O)O)c(Cl)c(Cl)c2C1=O` (stereo not drawn) [Compound 454, R(+)-Butylindazone], with 97%.
Turning to `O=C(O)c1cc(=O)c2c(Cl)cc(Cl)cc2[nH]1` [Compound 460, 5,7-Dichlorokynurenic acid], the “Compound effect (percent receptor signaling in presence of test compound, relative lux units relative to the SCH23390 control)” value turned out to be 102%.
Same read-out and setting: in the case of `CCCN1CCC[C@@H](c2cccc(C#N)c2)C1.Cl` [Compound 469, S(-)-DS 121 hydrochloride] it was 94%; in that of `CCN(CC)C(=O)c1ccc(O)c(OC)c1` [Compound 470, Vanillic acid diethylamide], 101%.
Still for that read-out and setting: in the case of `CCCCCCCCCCCCCCCCCCOCC(COP(=O)([O-])OCC[N+](C)(C)C)OC` (stereo not shown) [Compound 475, ET-18-OCH3] it was 113%; in that of `Nc1ncnc2c1c(-c1ccc(Oc3ccccc3)cc1)cn2C1CCCC1` [Compound 477, 7-Cyclopentyl-5-(4-phenoxy)phenyl-7H-pyrrolo[2,3-d]pyrimidin-4-ylamine], 76%; in that of `Br.CCSC(=N)N` [Compound 482, S-Ethylisothiourea hydrobromide], 104%.

The test is the same for the next values; noted with them: read-out: % of the SCH23390 effect (percent inhibition of receptor response relative to the SCH23390 control).
Consider `CC[C@H]1CN2CCc3cc(OC)c(OC)cc3[C@@H]2C[C@@H]1C[C@H]1NCCc2cc(OC)c(OC)cc21` [Compound 478, Emetine dihydrochloride hydrate], for which the inhibition at 10 µM turned out to be 86%.

These data come from article PMC3265452 (PLoS Neglected Tropical Diseases, 2012).
